Reference: patent US10219516B2, “Molecules having pesticidal utility, and intermediates, compositions, and processes, related thereto” (priority 2015, dated 2019)

Experiments:
Format in all cases: in vivo
[1] = system: Beet Armyworm (Spodoptera exigua, LAPHEG); assay: Bioassay on Beet Armyworm (BAW), 128-well diet tray assay; details: Beet Armyworm, 128-well diet tray assay, read-out: BAW rating
In short: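 Percent mortality, averaged across eight replicate wells, was scored after five to seven days at 25° C. under a 14:10 light-dark cycle. Each well's diet carried 50 μg/cm^2 of the dried test molecule and held one to five second instar larvae.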

[2] = system: Cabbage Looper (Trichoplusia ni, TRIPNI); assay: Bioassay on Cabbage Looper (CL), 128-well diet tray assay; details: Trichoplusia ni; Cabbage Looper, 128-well diet tray assay; read-out: CL rating
In short: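 Test molecule is dissolved in 90:10 acetone-water and applied at 50 μg/cm^2 onto artificial diet, then dried. One to five second-instar larvae go into each of eight wells. Trays, sealed but vented, stay at 25° C., 14:10 light-dark, five to seven days, after which mortality is averaged.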

[3] = system: Yellow Fever Mosquito (Aedes aegypti, AEDSAE); assay: Bioassay on Yellow Fever Mosquito (YFM), 96-well plate larval assay; details: Yellow Fever Mosquito, 96-well plate larval assay
In short: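 Aedes aegypti larvae (about 1 day old) in liver-powder water were added to plates dispensed from DMSO master plates (4000 ppm stock) diluted with 90:10 water/acetone; six replicate plates per master. Lidded plates were held at room temperature for 3 days, then each well was scored for mortality.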

Compound: Nc1cc(F)ccc1NC(=O)c1cc(NC(=O)[C@H]2[C@H](c3cc(Cl)cc(Cl)c3)C2(Cl)Cl)ccc1Cl [F575, N-(2-Amino-4-fluorophenyl)-2-chloro-5-((1R,3R)-2,2-dichloro-3-(3,5-dichlorophenyl)cyclopropane-1-carboxamido)benzamide]
- pest or weed control at 50 µg/cm2 [1]: 50 to 100%
- pest or weed control at 50 µg/cm2 [2]: 50 to 100%
- YFM rating [3]: A (80-100)

Compound: Nc1cc(F)ccc1NC(=O)c1cc(NC(=O)[C@H]2[C@H](c3ccc(Cl)c(Cl)c3)C2(Cl)Cl)ccc1Cl [F576, N-(2-Amino-4-fluorophenyl)-2-chloro-5-((1R,3R)-2,2-dichloro-3-(3,4-dichlorophenyl)cyclopropane-1-carboxamido)benzamide]
- pest or weed control at 50 µg/cm2 [1]: 50 to 100%
- pest or weed control at 50 µg/cm2 [2]: 50 to 100%
- YFM rating [3]: A (80-100)

Compound: Nc1cc(F)ccc1NC(=O)c1cc(NC(=O)[C@H]2[C@H](c3cc(Cl)c(Cl)c(Cl)c3)C2(Cl)Cl)ccc1Cl [F577, N-(2-Amino-4-fluorophenyl)-2-chloro-5-((1R,3R)-2,2-dichloro-3-(3,4,5-trichlorophenyl)cyclopropane-1-carboxamido)benzamide]
- pest or weed control at 50 µg/cm2 [1]: 50 to 100%
- pest or weed control at 50 µg/cm2 [2]: 50 to 100%
- YFM rating [3]: A (80-100)

Compound: Nc1cc(F)ccc1NC(=O)c1cc(NC(=O)[C@H]2[C@H](c3ccc(F)c(Cl)c3)C2(Cl)Cl)ccc1Cl [F578, N-(2-Amino-4-fluorophenyl)-2-chloro-5-((1R,3R)-2,2-dichloro-3-(3-chloro-4-fluorophenyl)cyclopropane-1-carboxamido)benzamide]
- pest or weed control at 50 µg/cm2 [1]: 50 to 100%
- pest or weed control at 50 µg/cm2 [2]: 50 to 100%
- YFM rating [3]: A (80-100)

Compound: Nc1cc(NC(=O)c2cc(NC(=O)[C@H]3[C@H](c4ccc(Cl)c(Br)c4)C3(Cl)Cl)ccc2Cl)c(F)cc1F [F580, N-(5-Amino-2,4-difluorophenyl)-5-((1R,3R)-3-(3-bromo-4-chlorophenyl)-2,2-dichlorocyclopropane-1-carboxamido)-2-chlorobenzamide]
- pest or weed control at 50 µg/cm2 [1]: 50 to 100%
- pest or weed control at 50 µg/cm2 [2]: 50 to 100%
- YFM rating [3]: A (80-100)

Compound: O=C(Nc1ccc(F)cc1F)c1cc(NC(=O)C2C(c3cc(F)c(F)c(F)c3)C2(Cl)Cl)ccc1Cl (stereo not drawn) [F581, 2-Chloro-5-trans-(2,2-dichloro-3-(3,4,5-trifluorophenyl)cyclopropane-1-carboxamido)-N-(2,4-difluorophenyl)benzamide]
- pest or weed control at 50 µg/cm2 [1]: 50 to 100%
- pest or weed control at 50 µg/cm2 [2]: 50 to 100%
- YFM rating [3]: A (80-100)

Compound: O=C(Nc1cc(F)c(F)c(Br)c1)c1cc(NC(=O)[C@H]2[C@H](c3cc(Cl)cc(Cl)c3)C2(Cl)Cl)ccc1Cl [F583, N-(3-Bromo-4,5-difluorophenyl)-2-chloro-5-((1R,3R)-2,2-dichloro-3-(3,5-dichlorophenyl)cyclopropane-1-carboxamido)benzamide]
- pest or weed control at 50 µg/cm2 [1]: 50 to 100%
- pest or weed control at 50 µg/cm2 [2]: 50 to 100%
- YFM rating [3]: A (80-100)

Compound: O=C(Nc1ccc(F)cc1F)c1cc(NC(=O)C2C(c3ccc(Cl)c(F)c3)C2(Cl)Cl)ccc1Cl (stereo not drawn) [PF36, 2-Chloro-5-(trans)-2,2-dichloro-3-(4-chloro-3-fluorophenyl)cyclopropane-1-carboxamido)-N-(2,4-difluorophenyl)benzamide]
- pest or weed control at 50 µg/cm2 [1]: 50 to 100%
- pest or weed control at 50 µg/cm2 [2]: 50 to 100%
- YFM rating [3]: A (80-100)

Compound: O=C(Nc1ccc(F)cc1)c1cc(NC(=O)C2C(c3cc(Cl)cc(Cl)c3)C2(F)Br)ccc1Cl (stereo not drawn) [PF51, 5-(trans)-2-Bromo-3-(3,5-dichlorophenyl)-2-fluorocyclopropane-1-carboxamido)-2-chloro-N-(4-fluorophenyl)benzamide]
- pest or weed control at 50 µg/cm2 [1]: 50 to 100%
- pest or weed control at 50 µg/cm2 [2]: 50 to 100%
- YFM rating [3]: B (More than 0-Less than 80)

Compound: COc1cc(NC(=O)c2cc(NC(=O)C3C(c4cc(Cl)cc(Cl)c4)C3(Cl)Cl)ccc2Cl)ccc1Cl (stereo not drawn) [PF114, 2-Chloro-N-(4-chloro-3-methoxyphenyl)-5-(trans)-2,2-dichloro-3-(3,5-dichlorophenyl)cyclopropane-1-carboxamido)benzamide]
- pest or weed control at 50 µg/cm2 [1]: 50 to 100%
- pest or weed control at 50 µg/cm2 [2]: 50 to 100%
- YFM rating [3]: A (80-100)

Compound: O=C(Nc1ccc(Br)c(F)c1)c1cc(NC(=O)C2C(c3cc(Cl)cc(Cl)c3)C2(Cl)Cl)ccc1Cl (stereo not drawn) [PF115, N-(4-Bromo-3-fluorophenyl)-2-chloro-5-(trans)-2,2-dichloro-3-(3,5-dichlorophenyl)cyclopropane-1-carboxamido)benzamide]
- pest or weed control at 50 µg/cm2 [1]: 50 to 100%
- pest or weed control at 50 µg/cm2 [2]: 50 to 100%
- YFM rating [3]: A (80-100)

Compound: O=C(Nc1ccc(Cl)cc1F)c1cc(NC(=O)C2C(c3cc(Cl)cc(Cl)c3)C2(Cl)Cl)ccc1Cl (stereo not drawn) [PF116, 2-Chloro-N-(4-chloro-2-fluorophenyl)-5-(trans)-2,2-dichloro-3-(3,5-dichlorophenyl)cyclopropane-1-carboxamido)benzamide]
- pest or weed control at 50 µg/cm2 [1]: 50 to 100%
- pest or weed control at 50 µg/cm2 [2]: 50 to 100%
- YFM rating [3]: B (More than 0-Less than 80)

Compound: O=C(Nc1ccc(Cl)c(Cl)c1)c1cc(NC(=O)C2C(c3cc(Cl)cc(Cl)c3)C2(Cl)Cl)ccc1Cl (stereo not drawn) [PF117, 2-Chloro-5-(trans)-2,2-dichloro-3-(3,5-dichlorophenyl)cyclopropane-1-carboxamido)-N-(3,4-dichlorophenyl)benzamide]
- pest or weed control at 50 µg/cm2 [1]: 50 to 100%
- pest or weed control at 50 µg/cm2 [2]: 50 to 100%
- YFM rating [3]: A (80-100)

Compound: O=C(Nc1cc(F)ccc1F)c1cc(NC(=O)C2C(c3cc(Cl)cc(Cl)c3)C2(Cl)Cl)ccc1Cl (stereo not drawn) [PF118, 2-Chloro-5-(trans)-2,2-dichloro-3-(3,5-dichlorophenyl)cyclopropane-1-carboxamido)-N-(2,5-difluorophenyl)benzamide]
- pest or weed control at 50 µg/cm2 [1]: 50 to 100%
- pest or weed control at 50 µg/cm2 [2]: 50 to 100%
- YFM rating [3]: B (More than 0-Less than 80)

Compound: O=C(Nc1ccc(F)c(Cl)c1)c1cc(NC(=O)C2C(c3cc(Cl)cc(Cl)c3)C2(Cl)Cl)ccc1Cl (stereo not drawn) [PF122, 2-Chloro-N-(3-chloro-4-fluorophenyl)-5-(trans)-2,2-dichloro-3-(3,5-dichlorophenyl)cyclopropane-1-carboxamido)benzamide]
- pest or weed control at 50 µg/cm2 [1]: 50 to 100%
- pest or weed control at 50 µg/cm2 [2]: 50 to 100%
- YFM rating [3]: B (More than 0-Less than 80)

Compound: O=C(Nc1ccc(Cl)c(F)c1)c1cc(NC(=O)C2C(c3cc(Cl)cc(Cl)c3)C2(Cl)Cl)ccc1Cl (stereo not drawn) [PF123, 2-Chloro-N-(4-chloro-3-fluorophenyl)-5-(trans)-2,2-dichloro-3-(3,5-dichlorophenyl)cyclopropane-1-carboxamido)benzamide]
- pest or weed control at 50 µg/cm2 [1]: 50 to 100%
- pest or weed control at 50 µg/cm2 [2]: 50 to 100%
- YFM rating [3]: A (80-100)

Compound: C#Cc1cccc(NC(=O)c2cc(NC(=O)C3C(c4cc(Cl)cc(Cl)c4)C3(Cl)Cl)ccc2Cl)c1 (stereo not drawn) [PF124, 2-Chloro-5-(trans)-2,2-dichloro-3-(3,5-dichlorophenyl)cyclopropane-1-carboxamido)-N-(3-ethynylphenyl)benzamide]
- pest or weed control at 50 µg/cm2 [1]: 50 to 100%
- pest or weed control at 50 µg/cm2 [2]: 50 to 100%
- YFM rating [3]: A (80-100)

Compound: Cc1ccc(NC(=O)c2cc(NC(=O)C3C(c4cc(Cl)cc(Cl)c4)C3(Cl)Cl)ccc2Cl)cc1Cl (stereo not drawn) [PF125, 2-Chloro-N-(3-chloro-4-methylphenyl)-5-(trans)-2,2-dichloro-3-(3,5-dichlorophenyl)cyclopropane-1-carboxamido)benzamide]
- pest or weed control at 50 µg/cm2 [1]: 50 to 100%
- pest or weed control at 50 µg/cm2 [2]: 50 to 100%
- YFM rating [3]: A (80-100)

Compound: O=C(Nc1ccc2cc[nH]c2c1)c1cc(NC(=O)C2C(c3cc(Cl)cc(Cl)c3)C2(Cl)Cl)ccc1Cl (stereo not drawn) [PF126, 2-Chloro-5-(trans)-2,2-dichloro-3-(3,5-dichlorophenyl)cyclopropane-1-carboxamido)-N-(1H-indol-6-yl)benzamide]
- pest or weed control at 50 µg/cm2 [1]: 50 to 100%
- pest or weed control at 50 µg/cm2 [2]: 50 to 100%
- YFM rating [3]: A (80-100)

Compound: O=C(Nc1ccc(Cl)c(Cl)c1F)c1cc(NC(=O)C2C(c3cc(Cl)cc(Cl)c3)C2(Cl)Cl)ccc1Cl (stereo not drawn) [PF127, 2-Chloro-N-(3,4-dichloro-2-fluorophenyl)-5-(trans)-2,2-dichloro-3-(3,5-dichlorophenyl)cyclopropane-1-carboxamido)benzamide]
- pest or weed control at 50 µg/cm2 [1]: 50 to 100%
- pest or weed control at 50 µg/cm2 [2]: 50 to 100%
- YFM rating [3]: A (80-100)

Compound: O=C(Nc1nnc(Br)s1)c1cc(NC(=O)C2C(c3cc(Cl)cc(Cl)c3)C2(Cl)Cl)ccc1Cl (stereo not drawn) [PF133, trans-N-(5-bromo-1,3,4-thiadiazol-2-yl-2-chloro-5-(2,2-dichloro-3-(3,5-dichlorophenyl)cyclopropane-1-carboxamido)benzamide]
- pest or weed control at 50 µg/cm2 [1]: 50 to 100%
- pest or weed control at 50 µg/cm2 [2]: 50 to 100%
- YFM rating [3]: A (80-100)

Compound: N#Cc1cc(Cl)cc(C2C(C(=O)Nc3ccc(Cl)c(C(=O)Nc4ccc(F)cc4)c3)C2(Cl)Cl)c1 (stereo not drawn) [PF155, 2-Chloro-5-(trans)-2,2-dichloro-3-(3-chloro-5-cyanophenyl)cyclopropane-1-carboxamido)-N-(4-fluorophenyl)benzamide]
- pest or weed control at 50 µg/cm2 [1]: 50 to 100%
- pest or weed control at 50 µg/cm2 [2]: 50 to 100%
- YFM rating [3]: B (More than 0-Less than 80)
